Measured values as given in patent US20070248944A1, “Preventive and Remedy for Collagen or Elastin Metabolic Disorder” (YAMAGUCHI UNIVERSITY, priority 2004, published 2007).

Legend:
[1] = tested on: abdominal aortic aneurysm model (angiotensin II-infused apoE knockout mice); assay: JNK inhibition experiment using an apoE knockout mouse aneurysm model (angiotensin II infusion, prevention); assay type: in vivo; conditions: by week 5 after initiation of angiotensin II infusion; control group 6.25%
Method: An abdominal aortic aneurysm model was generated through continuous administration of angiotensin II to apolipoprotein E (apo E) knockout mice according to Daugherty et al's method (J. Clin. Invest. 105: 1605-1612 (2000)). Specifically, mini-osmotic pump (Alzet) was implanted into 24-week-old apoE knockout male mice and angiotensin II (1 μg/min/kg) was continuously infused. These model mice were affected with hyperlipidemia, hypertension, and marked aortic arteriosclerosis. As a result of 4 weeks of angiotensin II infusion, aneurysm formation was observed mainly in the suprarenal abdominal aorta of these mice. Some of these mice died due to aneurysmal rupture. […] Simultaneously with the initiation of continuous infusion of angiotensin II, daily subcutaneous injection of a JNK inhibitor SP600125 (SP group: 8 mice) or a solution (control group: 16 mice) without JNK inhibitor was initiated. The method employed herein for administration of SP600125 was similar to that in Example 1 above. On week 4, the maximum diameter of each abdominal aorta was measured using ultrasonic diagnostic equipment.

[2] = tested on: abdominal aortic aneurysm model (angiotensin II-infused apoE knockout mice); assay: Aneurysm therapy and regression in apoE knockout mouse aneurysm model; assay type: in vivo; conditions: 8 weeks of injection; control group 0% ±13%; p<0.05
Method: After completion of 4 weeks of angiotensin II infusion, the lumen diameter of each abdominal aortic aneurysm was measured using ultrasonic diagnostic equipment. The mice were evenly divided into 2 groups based on the measured values. Immediately after grouping, daily subcutaneous injection of the […] inhibitor SP600125 (SP group) or a solution alone (control group) was initiated. The method employed herein for administration of SP600125 and the solution was similar to that in Example 1 above. On week 8 after the initiation of injection, the aneurysm diameter of each abdominal aortic aneurysm was measured again using ultrasonic diagnostic equipment.

MMP-9 = MMP-9 secretion in TNF-α-stimulated THP-1 cells, gelatin zymography; assay type: cell-based, human; conditions: 0, 1, 2, and 5 μM peptide, TNF-α 50 ng/ml, 48 hours
Method: To verify the effects of a JNK inhibitor peptide, an experiment was conducted using MMP-9 as an index, which is thought to be important in the pathogenesis of aneurysms, in a cultured cell system. Cells used herein were macrophage cells (THP-1) mainly expressing MMP-9 in human aneurysms. Specifically, a JNK inhibitor peptide D-JNKI1 (ALEXIS) was administered at various concentrations (0, 1, 2, and 5 μM D-JNKI1) in advance to cultured THP-1 cells. D-TAT (ALEXIS) was used as a control peptide. At 24 hours after peptide administration. the cells were stimulated with TNF-α (50 ng/ml), an inflammatory cytokine. 48 hours later, culture solutions were collected and then the amounts of MMP-9 secreted in the culture solutions were subjected to quantitative analysis by the gelatin zymography method.

[3] = tested on: human abdominal aortic aneurysmal wall tissue; assay: 3H-labeled proline incorporation in human aneurysmal wall culture system; assay type: cell-based; conditions: 5 mM peptide; TNF-α 100 ng/ml; 48 hours; p<0.05
Method: Aneurysmal wall tissue excised at the time of operation of human abdominal aortic aneurysms was chopped and then cultured. The ability of aneurysmal wall to newly synthesize collagen was analyzed using 3H-labeled proline that is abundantly contained in collagen according to the Kidwell et al's method (Methods in Enzymology 147: 407-414 (1987)). Specifically, 3H-labeled proline (3 μCi/ml) was added to media to initiate culture. Immediately after culture initiation, a JNK inhibitor peptide (D-JNKI1, 5 mM, ALEXIS) was administered. D-TAT (5 mM, ALEXIS) was used as a control peptide. At 12 hours after peptide administration, stimulation was performed with TNF-α (R&D Systems, 100 ng/ml) TNF-α is an inflammatory cytokine that is increased in human aortic aneurysms and is known to activate JNK. 48 hours later, proteins in the culture supernatants were collected. 3H-labeled proline that had been incorporated for novel synthesis was measured using a scintillation counter.

lysyl oxidase = assay: Lysyl oxidase mRNA expression in serum-deficient vascular smooth muscle cells, real time PCR; assay type: cell-based, rat; set-up: dose or concentration left out as unconfirmed; conditions: serum-deficiency stress; day 6; p<0.01
Method: An experiment was conducted using a vascular smooth muscle cell primary culture system isolated from a rat aorta. Serum deficiency state was created at the initiation of the experiment. JNK of cultured cells was activated by serum-deficiency stress. Immediately after the initiation of the experiment, a JNK inhibitor peptide (D-JNKI1, 5 mM, ALEXIS) was administered. D-TAT (5 mM, ALEXIS) was used as a control peptide. On day 6 after peptide administration, the cells were harvested. Lysyl oxidase expression was subjected to quantitative analysis at the mRNA level using the real time PCR method. Lysyl oxidase (LOX) is an enzyme essential for the maturation of collagen fiber or elastin fiber. Decreased level of LOX indicates lowered ability to synthesize collagen or elastin.

[4] = tested on: vascular smooth muscle cells isolated from a rat aorta; assay: Collagen synthesis (3H-labeled proline, collagenase-sensitive fraction) in vascular smooth muscle cell primary culture; assay type: cell-based; set-up: dose or concentration left out as unconfirmed; conditions: 72 hours; serum-free media; p<0.01
Method: An experiment was conducted using a vascular smooth muscle cell primary culture system isolated from a rat aorta. Among newly-synthesized proteins into which 3H-labeled proline had been incorporated, fractions that are specifically degraded by collagen degrading enzymes were subjected to quantitative analysis according to Kidwell et al's method (Methods in Enzymology, 147: 407-414 (1987)). 3H-labeled proline (3 μCi/ml) was added to serum-free media to initiate culture. Immediately after culture initiation, a JNK inhibitor peptide (D-JNK1, 0, 1, 2, and 5 mM, ALEXIS) was administered. At 72 hours after peptide administration, proteins in the culture supernatants were collected. Furthermore, only fractions that had been solubilized by collagen degrading enzymes were collected. 3H-labeled proline that had been incorporated for novel collagen synthesis was measured using a scintillation counter.

| Compound | Cumulative survival rate [1] [%] | Reduction percentage of aneurysm diameter (before vs after injection) [2] | MMP-9 secretion due to TNF-α (MMP-9) | 3H-labeled proline incorporation decreased by TNF-α [3] | Lysyl oxidase expression level (mRNA) (lysyl oxidase) | Ability to synthesize collagen [4] [times] |
| --- | --- | --- | --- | --- | --- | --- |
| Oc1c2ccccc2c2c3c(cccc13)N=N2 [SP600125, Anthra[1-9-cd]pyrazol-6(2H)-one] | 87.5 | 17% ±10% | – | – | – | – |
| c-Jun N-terminal Kinase Peptide Inhibitor 1, D-stereoisomer [D-JNKI1] | – | – | suppressed MMP-9 secretion due to TNF-α in a concentration-dependent manner | significantly restored | inhibited a decrease in lysyl oxidase expression level | 1.6±0.1 |
